Source: ChEMBL document CHEMBL1201862, “PubChem BioAssay data set” (2004)
Active and inactive are the calls of the source.

Experiments:
[1] = molecular target: T1, NADPH oxidase 1 (Homo sapiens, UniProt Q9Y5S8); assay type: functional, cell-based;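 further: Cell-based assay with luminescence read-out, IC50 derived from inhibitor dose-response curves; intracellular ROS from endogenous NOX1 in intact HT29 colon cancer cells; potency of inhibitors that lower the ROS luminescence signal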
T1 sequence (Q9Y5S8 whole entry): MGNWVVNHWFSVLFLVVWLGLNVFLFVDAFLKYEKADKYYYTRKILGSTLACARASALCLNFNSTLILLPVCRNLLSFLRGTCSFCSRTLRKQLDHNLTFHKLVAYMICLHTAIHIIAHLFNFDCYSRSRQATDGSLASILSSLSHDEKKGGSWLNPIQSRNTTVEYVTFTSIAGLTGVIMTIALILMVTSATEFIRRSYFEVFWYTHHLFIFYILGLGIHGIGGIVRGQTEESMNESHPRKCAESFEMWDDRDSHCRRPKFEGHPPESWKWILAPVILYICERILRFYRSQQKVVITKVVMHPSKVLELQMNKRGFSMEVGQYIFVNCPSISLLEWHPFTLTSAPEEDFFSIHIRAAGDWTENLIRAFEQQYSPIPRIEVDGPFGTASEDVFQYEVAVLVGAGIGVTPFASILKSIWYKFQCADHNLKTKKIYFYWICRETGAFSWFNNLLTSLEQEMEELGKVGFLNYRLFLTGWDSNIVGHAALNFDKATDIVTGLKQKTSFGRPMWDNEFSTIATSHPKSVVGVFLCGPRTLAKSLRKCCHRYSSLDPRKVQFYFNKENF

[2] = insulin promoter down-regulators in MIN6 cells, imaging, high-content screening, mouse beta cells (AID 1628); assay type: functional
[3] = cytotoxicity in MIN6 insulinoma cells, dose response, cytotoxicity control, cell-based, mouse insulinoma (AID 2122); assay type: functional;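 further: confirmatory high-throughput counterscreen run to flag cytotoxic compounds; mouse MIN-6 beta cells carrying an insulin promoter eGFP reporter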
[4] = molecular target: T2, Estrogen receptor beta (Homo sapiens, UniProt Q92731); experiment: ERβ–SRC-3 coactivator interaction inhibitors, confirmation, orthogonal assay, biochemical, ELISA, streptavidin-HRP readout (AID 1060)
[5] = molecular target: T2, Estrogen receptor beta
[6] = molecular target: Nonstructural protein 1 (Influenza A virus, UniProt Q194T2); assay type: functional, Influenza A virus (A/California/07/2009(H1N1))
[7] = molecular target: Lytic switch protein BZLF1 (Epstein-Barr virus (strain B95-8) (HHV-4) (Human herpesvirus 4), UniProt P03206); experiment: EBV ZTA inhibitors, dose response, counter-screen for EBNA-1 inhibitor project, biochemical, fluorescence polarization, Epstein-Barr virus, 1536-well (AID 2377); set-up: species or system human gammaherpesvirus 4;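 further: fluorescence polarization of Cy5-labelled ZRE DNA probe bound by purified Zta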
[8] = molecular target: Epstein-Barr nuclear antigen 1 (Epstein-Barr virus (strain B95-8) (HHV-4) (Human herpesvirus 4), UniProt P03211); experiment: EBNA-1 inhibitors, dose response, biochemical, fluorescence polarization, 1536-well (AID 2381); set-up: species or system human gammaherpesvirus 4;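 further: fluorescence polarization of a Cy5 DNA probe bound by EBNA-1 protein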
[9] = molecular target: T3, Replicative DNA helicase DnaB (Mycobacterium tuberculosis, UniProt P9WMR3); experiment: DnaB intein splicing inhibitors, dose response, biochemical, cell-free fluorescence (AID 449749); assay type: functional
T3 sequence (P9WMR3 whole entry): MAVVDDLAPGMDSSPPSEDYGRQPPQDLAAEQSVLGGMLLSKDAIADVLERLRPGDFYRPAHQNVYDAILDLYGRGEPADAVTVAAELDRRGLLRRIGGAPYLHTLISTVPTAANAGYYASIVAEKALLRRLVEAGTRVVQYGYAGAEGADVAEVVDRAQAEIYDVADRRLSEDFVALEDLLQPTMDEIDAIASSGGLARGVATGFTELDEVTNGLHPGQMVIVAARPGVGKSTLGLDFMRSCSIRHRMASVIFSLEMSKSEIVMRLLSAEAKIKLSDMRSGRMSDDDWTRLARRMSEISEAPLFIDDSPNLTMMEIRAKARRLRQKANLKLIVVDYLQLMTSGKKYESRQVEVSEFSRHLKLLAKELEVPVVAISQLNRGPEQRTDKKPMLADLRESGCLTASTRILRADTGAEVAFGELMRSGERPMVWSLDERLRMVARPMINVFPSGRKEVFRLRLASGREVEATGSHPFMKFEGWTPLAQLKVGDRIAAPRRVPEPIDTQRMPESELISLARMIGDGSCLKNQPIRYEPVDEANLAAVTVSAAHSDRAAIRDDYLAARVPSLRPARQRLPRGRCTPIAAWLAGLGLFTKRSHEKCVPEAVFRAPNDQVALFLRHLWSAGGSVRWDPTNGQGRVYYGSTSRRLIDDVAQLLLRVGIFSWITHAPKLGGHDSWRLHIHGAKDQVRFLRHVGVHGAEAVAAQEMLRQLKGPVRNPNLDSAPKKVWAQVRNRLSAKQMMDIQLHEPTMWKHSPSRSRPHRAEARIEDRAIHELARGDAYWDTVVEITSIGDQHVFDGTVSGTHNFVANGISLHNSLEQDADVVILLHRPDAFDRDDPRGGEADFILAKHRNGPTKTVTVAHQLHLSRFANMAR

[10] = molecular target: T4, Protein RecA (Mycobacterium tuberculosis, UniProt P9WHJ3); experiment: Fluorescence Cell-Free Homogeneous Dose Retest to Identify Inhibitors of RecA-Intein Splicing Activity. [Related pubchem assays (depositor defined):AID2097, AID2223, AID489010, AID492950]; assay type: functional
T4 sequence (P9WHJ3 whole entry): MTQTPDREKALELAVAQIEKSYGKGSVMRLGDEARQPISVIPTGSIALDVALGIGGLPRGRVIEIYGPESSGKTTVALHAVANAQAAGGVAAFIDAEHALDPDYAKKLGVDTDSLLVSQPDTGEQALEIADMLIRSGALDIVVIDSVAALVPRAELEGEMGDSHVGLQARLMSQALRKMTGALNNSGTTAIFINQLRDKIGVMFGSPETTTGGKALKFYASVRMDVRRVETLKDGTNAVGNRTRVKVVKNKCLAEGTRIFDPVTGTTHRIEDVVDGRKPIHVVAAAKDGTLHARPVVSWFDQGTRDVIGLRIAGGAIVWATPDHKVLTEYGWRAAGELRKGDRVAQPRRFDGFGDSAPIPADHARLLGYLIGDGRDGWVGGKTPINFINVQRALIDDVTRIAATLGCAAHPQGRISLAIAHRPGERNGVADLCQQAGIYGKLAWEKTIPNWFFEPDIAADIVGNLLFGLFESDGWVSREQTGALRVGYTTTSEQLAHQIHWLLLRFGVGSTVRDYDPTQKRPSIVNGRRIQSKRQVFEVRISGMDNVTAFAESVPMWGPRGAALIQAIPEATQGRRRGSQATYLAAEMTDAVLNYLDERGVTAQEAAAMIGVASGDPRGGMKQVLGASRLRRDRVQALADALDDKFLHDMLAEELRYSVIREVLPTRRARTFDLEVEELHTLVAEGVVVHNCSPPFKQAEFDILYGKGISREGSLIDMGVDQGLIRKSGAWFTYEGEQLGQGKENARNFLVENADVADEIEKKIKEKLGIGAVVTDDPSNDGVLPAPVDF

[11] = molecular target: T5, Aspartyl aminopeptidase (Plasmodium falciparum 3D7, UniProt Q8I2J3); experiment: Counterscreen for inhibitors of M1 and M17 aminopeptidases: QFRET-based biochemical high throughput dose response assay for inhibitors of the Plasmodium falciparum M18 Aspartyl Aminopeptidase (PFM18AAP). [Related PubChem assays: 1619 (Screening assay (M17LAP inhibitors).), 1445 (Screening assay (M1AAP inhibitors).)]
T5 sequence (Q8I2J3 whole entry): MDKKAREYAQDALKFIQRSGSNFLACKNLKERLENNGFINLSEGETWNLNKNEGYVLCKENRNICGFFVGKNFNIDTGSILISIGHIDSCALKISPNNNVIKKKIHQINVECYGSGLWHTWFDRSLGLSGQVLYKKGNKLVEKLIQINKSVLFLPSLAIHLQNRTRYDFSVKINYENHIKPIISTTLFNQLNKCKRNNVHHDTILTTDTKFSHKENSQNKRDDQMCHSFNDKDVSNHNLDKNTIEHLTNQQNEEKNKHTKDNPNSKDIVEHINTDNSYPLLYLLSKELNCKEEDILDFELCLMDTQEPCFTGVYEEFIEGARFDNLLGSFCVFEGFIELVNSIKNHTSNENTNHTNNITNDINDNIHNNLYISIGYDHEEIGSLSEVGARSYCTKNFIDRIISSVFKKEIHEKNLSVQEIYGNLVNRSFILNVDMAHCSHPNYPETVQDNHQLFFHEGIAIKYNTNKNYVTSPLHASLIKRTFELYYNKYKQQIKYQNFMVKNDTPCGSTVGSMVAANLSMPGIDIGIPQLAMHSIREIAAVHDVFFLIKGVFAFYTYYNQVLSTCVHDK

[12] = molecular target: Procathepsin L (Homo sapiens, UniProt P07711); experiment: cathepsin L inhibitors, dose response, counter-screen for M1/M17 aminopeptidase inhibitor project, biochemical, QFRET, 1536-well (AID 2214)
[13] = molecular target: T6, Leucine aminopeptidase (Plasmodium falciparum 3D7, UniProt Q8IL11); experiment: P. falciparum M17LAP inhibitors, primary screen, biochemical, fluorogenic H-Leu-NHMec substrate, 1536-well (AID 1619); assay type: functional
T6 sequence (Q8IL11 whole entry): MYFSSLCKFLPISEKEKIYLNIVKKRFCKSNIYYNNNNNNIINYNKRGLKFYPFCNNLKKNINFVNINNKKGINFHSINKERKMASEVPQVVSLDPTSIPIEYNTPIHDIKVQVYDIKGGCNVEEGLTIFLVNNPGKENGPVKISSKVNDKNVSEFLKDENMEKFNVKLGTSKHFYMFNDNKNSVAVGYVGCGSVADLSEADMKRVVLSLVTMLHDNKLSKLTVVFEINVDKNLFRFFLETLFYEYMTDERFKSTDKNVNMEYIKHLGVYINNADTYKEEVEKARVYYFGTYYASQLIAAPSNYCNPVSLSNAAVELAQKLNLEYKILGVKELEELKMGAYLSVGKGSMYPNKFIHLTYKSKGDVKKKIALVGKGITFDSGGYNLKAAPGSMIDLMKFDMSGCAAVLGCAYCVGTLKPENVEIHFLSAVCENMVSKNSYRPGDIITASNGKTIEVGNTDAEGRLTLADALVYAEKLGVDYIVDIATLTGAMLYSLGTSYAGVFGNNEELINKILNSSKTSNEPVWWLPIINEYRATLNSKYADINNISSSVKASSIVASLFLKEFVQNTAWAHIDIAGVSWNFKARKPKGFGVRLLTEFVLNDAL

[14] = molecular target: T7, Neuropeptide Y receptor type 2 (Homo sapiens, UniProt P49146); assay type: functional, cell-based;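 further: HEK293 cells expressing the receptor and a CNG channel; stimulus was NPY near EC95 followed by isoproterenol to raise cAMP; antagonist potency measured as restoring cAMP signal that NPY suppresses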
T7 sequence (P49146 whole entry): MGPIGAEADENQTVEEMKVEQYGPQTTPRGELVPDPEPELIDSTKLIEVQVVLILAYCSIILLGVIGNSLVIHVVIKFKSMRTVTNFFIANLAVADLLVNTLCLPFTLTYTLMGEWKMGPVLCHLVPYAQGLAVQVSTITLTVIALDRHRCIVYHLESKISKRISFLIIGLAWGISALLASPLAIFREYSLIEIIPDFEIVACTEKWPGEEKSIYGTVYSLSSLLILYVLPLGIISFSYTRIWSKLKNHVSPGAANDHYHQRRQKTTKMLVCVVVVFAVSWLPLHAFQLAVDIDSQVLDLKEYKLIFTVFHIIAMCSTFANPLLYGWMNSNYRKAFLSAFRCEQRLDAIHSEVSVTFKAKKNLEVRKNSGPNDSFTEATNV

[15] = molecular target: T8, Neuropeptide Y receptor type 1 (Homo sapiens, UniProt P25929); assay type: functional;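 further: HEK293 cells with a CNG channel challenged with NPY then isoproterenol; potency as antagonist that reverses NPY suppression of cAMP signal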
T8 sequence (P25929 whole entry): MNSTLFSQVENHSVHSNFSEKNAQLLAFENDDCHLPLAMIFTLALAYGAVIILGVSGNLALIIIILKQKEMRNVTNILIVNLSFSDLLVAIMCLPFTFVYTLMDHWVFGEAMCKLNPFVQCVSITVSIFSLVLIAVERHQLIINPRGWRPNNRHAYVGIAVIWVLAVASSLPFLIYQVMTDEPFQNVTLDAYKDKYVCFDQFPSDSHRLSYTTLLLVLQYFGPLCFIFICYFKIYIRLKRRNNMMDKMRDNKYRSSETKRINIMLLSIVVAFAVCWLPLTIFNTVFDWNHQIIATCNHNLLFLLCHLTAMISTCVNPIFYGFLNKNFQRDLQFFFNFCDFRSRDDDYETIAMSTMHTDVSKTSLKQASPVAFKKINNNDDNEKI

T2 sequence (Q92731 whole entry): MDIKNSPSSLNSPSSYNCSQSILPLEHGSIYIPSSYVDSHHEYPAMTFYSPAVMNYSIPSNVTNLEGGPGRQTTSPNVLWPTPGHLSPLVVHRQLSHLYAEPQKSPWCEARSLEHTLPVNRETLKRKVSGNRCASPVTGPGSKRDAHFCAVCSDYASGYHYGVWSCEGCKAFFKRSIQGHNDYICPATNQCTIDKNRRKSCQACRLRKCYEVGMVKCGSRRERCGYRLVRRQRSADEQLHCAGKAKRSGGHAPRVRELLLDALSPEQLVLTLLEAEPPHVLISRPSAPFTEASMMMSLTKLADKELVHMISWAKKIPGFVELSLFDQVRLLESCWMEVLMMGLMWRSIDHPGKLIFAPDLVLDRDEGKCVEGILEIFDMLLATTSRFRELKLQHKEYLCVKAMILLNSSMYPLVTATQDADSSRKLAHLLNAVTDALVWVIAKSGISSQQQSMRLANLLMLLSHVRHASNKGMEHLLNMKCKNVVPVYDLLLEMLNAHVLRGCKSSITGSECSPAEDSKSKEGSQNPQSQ
Sequence of Procathepsin L (P07711 whole entry): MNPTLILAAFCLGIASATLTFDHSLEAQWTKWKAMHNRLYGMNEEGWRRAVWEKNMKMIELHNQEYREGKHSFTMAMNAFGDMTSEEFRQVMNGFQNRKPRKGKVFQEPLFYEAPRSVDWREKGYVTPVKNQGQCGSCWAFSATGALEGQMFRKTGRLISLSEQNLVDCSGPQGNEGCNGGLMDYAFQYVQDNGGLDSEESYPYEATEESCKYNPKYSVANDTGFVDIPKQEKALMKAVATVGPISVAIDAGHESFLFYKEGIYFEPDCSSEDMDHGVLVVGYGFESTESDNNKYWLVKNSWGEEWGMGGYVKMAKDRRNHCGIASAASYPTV
Sequence of Lytic switch protein BZLF1 (P03206 whole entry): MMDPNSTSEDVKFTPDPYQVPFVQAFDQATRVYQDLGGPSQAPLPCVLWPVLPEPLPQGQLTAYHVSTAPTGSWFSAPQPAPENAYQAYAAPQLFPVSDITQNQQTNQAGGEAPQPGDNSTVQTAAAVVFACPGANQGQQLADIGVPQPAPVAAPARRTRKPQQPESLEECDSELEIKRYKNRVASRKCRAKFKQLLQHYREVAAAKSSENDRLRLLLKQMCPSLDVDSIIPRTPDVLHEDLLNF
Sequence of Epstein-Barr nuclear antigen 1 (P03211 whole entry): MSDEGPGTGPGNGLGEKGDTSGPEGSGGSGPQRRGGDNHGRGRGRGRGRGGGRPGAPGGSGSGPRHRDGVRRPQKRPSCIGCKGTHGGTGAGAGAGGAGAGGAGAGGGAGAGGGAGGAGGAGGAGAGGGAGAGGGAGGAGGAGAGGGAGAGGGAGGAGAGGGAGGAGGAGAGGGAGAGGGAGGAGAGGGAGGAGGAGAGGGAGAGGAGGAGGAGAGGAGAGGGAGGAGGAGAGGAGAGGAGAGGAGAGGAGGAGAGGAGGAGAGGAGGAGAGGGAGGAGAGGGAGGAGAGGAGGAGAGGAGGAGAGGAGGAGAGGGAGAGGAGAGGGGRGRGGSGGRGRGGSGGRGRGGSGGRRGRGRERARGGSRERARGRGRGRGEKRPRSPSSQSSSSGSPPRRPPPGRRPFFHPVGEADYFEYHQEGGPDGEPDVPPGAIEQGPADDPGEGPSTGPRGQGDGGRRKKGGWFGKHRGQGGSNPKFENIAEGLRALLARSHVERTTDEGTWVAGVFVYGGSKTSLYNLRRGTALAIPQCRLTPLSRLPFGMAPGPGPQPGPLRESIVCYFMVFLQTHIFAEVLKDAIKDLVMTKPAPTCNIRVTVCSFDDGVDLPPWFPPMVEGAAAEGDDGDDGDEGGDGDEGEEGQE
Sequence of Nonstructural protein 1 (Q194T2 whole entry): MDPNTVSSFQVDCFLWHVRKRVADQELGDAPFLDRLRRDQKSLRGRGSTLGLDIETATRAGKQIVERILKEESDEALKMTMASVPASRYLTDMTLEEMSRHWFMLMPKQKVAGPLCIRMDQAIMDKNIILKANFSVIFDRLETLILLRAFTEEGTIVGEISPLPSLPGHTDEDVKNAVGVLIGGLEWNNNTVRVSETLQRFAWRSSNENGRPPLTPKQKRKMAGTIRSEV

## O=C(CCC(=O)Nc1ccc(F)cc1)Nc1ccc(F)cc1
[1]
  IC50: > 17 µM (not active)

## CN(C)c1ccc(/N=C/c2ccco2)cc1
[2]
  IC50: 3.55 µM (active)
[3]
  IC50: 3.61 µM (active)
[4]
  IC50: 0.048 µM (not active)
[5]
  IC50: 18.5 µM (active)
[6]
  IC50: 16.6 µM (active)

## COc1cc(/C=N/Nc2c(Cl)c(Cl)nc(C(=O)O)c2Cl)cc(OC)c1OC
[1]
  IC50: > 17 µM (not active)

## O=C(NNC(=O)c1ccc(NC(=O)c2ccccc2)cc1)c1ccc(F)cc1
[7]
  IC50: > 111 µM (not active)
[8]
  IC50: 6.82 µM (active)

## O=c1cc(-c2ccc(F)cc2)[nH][nH]1
[9]
  AC50: 1.79 µM (active)
[10]
  EC50: 0.548 µM (active)
[11]
  IC50: > 73.5 µM (not active)
[12]
  IC50: > 59.6 µM (not active)
[13]
  IC50: 1.13 µM (active)

## COc1ccc(NC(=O)c2nnc(O)c3ccccc23)cc1S(=O)(=O)N1CCCCC1
[14]
  IC50: 19.6 µM (not active)
[15]
  IC50: 21 µM (not active)

## COCc1cc(O)n2c(-c3ccc(C)cc3)nnc2n1
[4]
  IC50: 1.03 µM (not active)
[5]
  IC50: 17.5 µM (active)

## O=C(NC(=S)Nc1ccc(S(=O)(=O)N2CCCCCC2)cc1)c1cccs1
[7]
  IC50: > 111 µM (not active)
[8]
  IC50: 14.8 µM (not active)

## Cc1ccc(Nc2nnc(SC3CCOC3=O)s2)c(C)c1 (stereo not drawn)
[11]
  IC50: > 73.5 µM (not active)
[12]
  IC50: > 59.6 µM (not active)
[13]
  IC50: 2.57 µM (active)
